Measurements published in patent US12528790B2, “Amide derivative having antiviral activity” (Shionogi & Co., Ltd., priority 2020, dated 2026).
Where two headings read alike, the source gives them in different places.

What was measured:
RSV A2 strain = assay: In vitro CPE (CytoPathic Effect) inhibition effect evaluation test, RSV type A; format: cell-based; conditions: human respiratory syncytial virus
Procedure, shortened: (§1)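 HEp-2 cells (2.4×10^5 cells/mL, 2% FBS E-MEM) were infected with RSV alongside 3-fold compound dilutions and incubated at 37 °C, 4 days for A2 and 5 days for B Wash/18537. Viable cells quantified by CellTiter-Glo 2.0 luminescence; EC50 by nonlinear regression as 50% CPE inhibition.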

[1] = tested on: RSV B (Wash/18537 strain); assay: In vitro CPE (CytoPathic Effect) inhibition effect evaluation test, RSV type B; format: cell-based; conditions: human respiratory syncytial virus
Procedure, shortened: as §1

[2] = inhibitory effect against RSV type A (RSV A2 strain), HEp-2 cells, CPE inhibition, read-out: EC50
[3] = inhibitory effect against RSV type B, CPE inhibition, read-out: EC50
[4] = HEp-2, 96 h, read-out: EC50, inhibitory effect against RSV type A (CPE inhibition)
[5] = HEp-2, 120 h, HEp-2 cells, RSV B (Wash/18537 strain), 5 days, CellTiter-Glo, read-out: EC50, inhibitory effect against RSV type B (CPE inhibition)

| Structure (SMILES) | EC50 (RSV A2 strain; [2]) [nM] | EC50 [1, 3] [nM] | EC50 (RSV A2 strain; [4]) [nM] | EC50 [1, 5] [nM] |
| --- | --- | --- | --- | --- |
| CC(F)(F)c1nc(N2CC3(CCOCC3)c3cc(OC4CCN(C5CC(F)(F)C5)CC4)ccc32)ncc1C(=O)NC1(C(=O)O)C2CC3CC(C2)CC1C3 (stereo not shown) [Compound I-551] | < 10 | < 10 | – | – |
| CC(F)(F)c1nc(N2CC3(CCOCC3)c3cc(O[C@H]4CC[C@H](NCC(F)(F)F)CC4)ccc32)ncc1C(=O)NC1(C(=O)O)C2CC3CC(C2)CC1C3 (stereo partly shown) [Compound I-552] | < 10 | < 10 | – | – |
| CC(F)(F)c1nc(N2CC3(CCOCC3)c3cc(O[C@H]4CC[C@H](Nc5ncc(F)cn5)CC4)ccc32)ncc1C(=O)NC1(C(=O)O)C2CC3CC(C2)CC1C3 (stereo partly shown) [Compound I-553] | < 10 | 10 to 100 | – | – |
| CC(F)(F)c1nc(N2CC3(CCOCC3)c3cc(O[C@H]4CC[C@H](N5CC(F)(F)C5)CC4)ccc32)ncc1C(=O)N[C@]1(C(=O)O)[C@@H]2CC3C[C@H]1C[C@@](F)(C3)C2 [Compound I-554] | < 10 | < 10 | – | – |
| CC(F)(F)c1nc(N2CC3(CCCCC3)c3cc(O[C@H]4CC[C@H](N5CC(F)(F)C5)CC4)ncc32)ncc1C(=O)NC1(C(=O)O)C2CC3CC(C2)CC1C3 (stereo partly shown) [Compound I-555] | < 10 | 10 to 100 | – | – |
| CC(F)(F)c1nc(N2CC3(CCCCC3)c3cc(O[C@H]4CC[C@H](N5CC(F)(F)C5)CC4)ncc32)ncc1C(=O)N[C@]1(C(=O)O)[C@@H]2CC3C[C@H]1C[C@@](F)(C3)C2 [Compound I-556] | < 10 | 10 to 100 | – | – |
| CC(F)(F)c1nc(N2CC3(CCCCC3)c3cc(OC4CCN(c5ncc(F)cn5)CC4)ncc32)ncc1C(=O)NC1(C(=O)O)C2CC3CC(C2)CC1C3 (stereo not shown) [Compound I-557] | < 10 | < 10 | – | – |
| O=C(NC1(C(=O)O)C2CC3CC(C2)CC1C3)c1cnc(N2CC3(CCCCC3)c3cc(OC4CCN(c5ncc(F)cn5)CC4)ncc32)nc1C(F)(F)F (stereo not shown) [Compound I-558] | < 10 | < 10 | – | – |
| CC(F)(F)c1nc(N2CC3(CCOCC3)c3cc(OC4CCN(CC(F)F)CC4)ccc32)ncc1C(=O)NC1(C(=O)O)C2CC3CC(C2)CC1C3 (stereo not shown) [Compound I-559] | < 10 | < 10 | – | – |
| CC(F)(F)c1nc(N2CC3(CCOCC3)c3cc(O[C@@H]4CCN(c5ncc(F)cn5)C4)ccc32)ncc1C(=O)NC1(C(=O)O)C2CC3CC(C2)CC1C3 (stereo partly shown) [Compound I-560] | < 10 | < 10 | – | – |
| CC(F)(F)c1nc(N2CC3(CCOCC3)c3cc(O[C@@H]4CCN(CC(F)(F)F)C4)ccc32)ncc1C(=O)NC1(C(=O)O)C2CC3CC(C2)CC1C3 (stereo partly shown) [Compound I-561] | < 10 | < 10 | – | – |
| CC(F)(F)c1nc(N2CC3(CCOCC3)c3cc(O[C@H]4CC[C@H](c5ncc(F)cn5)CC4)ccc32)ncc1C(=O)NC1(C(=O)O)C2CC3CC(C2)CC1C3 (stereo partly shown) [Compound I-562] | < 10 | < 10 | – | – |
| CC(F)(F)c1nc(N2CC3(CCCCC3)c3cc(O[C@H]4CC[C@H](n5ccnn5)CC4)ccc32)ncc1C(=O)NC1(C(=O)O)C2CC3CC(C2)CC1C3 (stereo partly shown) [Compound I-563] | < 10 | < 10 | – | – |
| CC(F)(F)c1nc(N2CC3(CCOCC3)c3cc(OC4CCN(C5CSC5)CC4)ccc32)ncc1C(=O)NC1(C(=O)O)C2CC3CC(C2)CC1C3 (stereo not shown) [Compound I-564] | < 10 | < 10 | – | – |
| CC(F)(F)c1nc(N2CC3(CCCC3)c3cc(OC4CCN(CC(F)(F)F)CC4)ccc32)ncc1C(=O)NC1(C(=O)O)C2CC3CC(C2)CC1C3 (stereo not shown) [Compound I-565] | < 10 | < 10 | – | – |
| O=C(NC1(C(=O)O)C2CC3CC(C2)CC1C3)c1cnc(N2CC3(CCCC3)c3cc(O[C@@H]4CCN(CC(F)(F)F)C4)ccc32)nc1C(F)(F)F (stereo partly shown) [Compound I-566] | < 10 | < 10 | – | – |
| COC[C@H](C)n1cc(-c2ncc(C(=O)NC3(C(=O)O)C4CC5CC(C4)CC3C5)c(C(C)(F)F)n2)c2ccc(O[C@H]3CC[C@H](N4CC(F)(F)C4)CC3)cc21 (stereo partly shown) [Compound I-567] | < 10 | < 10 | – | – |
| COC[C@@H](C)n1cc(-c2ncc(C(=O)NC3(C(=O)O)C4CC5CC(C4)CC3C5)c(C(C)(F)F)n2)c2ccc(O[C@H]3CC[C@H](N4CC(F)(F)C4)CC3)cc21 (stereo partly shown) [Compound I-569] | < 10 | < 10 | – | – |
| CCC(CC)n1cc(-c2ncc(C(=O)NC3(C(=O)O)C4CC5CC(C4)CC3C5)c(C(C)(F)F)n2)c2ccc(O[C@H]3CC[C@H](N4CC(F)(F)C4)CC3)cc21 (stereo partly shown) [Compound I-570] | – | – | 0.7 | 2.1 |
| CC(F)(F)c1nc(-c2cn(C3CCOCC3)c3cc(O[C@H]4CC[C@H](N5CC(F)(F)C5)CC4)ccc23)ncc1C(=O)NC1(C(=O)O)C2CC3CC(C2)CC1C3 (stereo partly shown) [Compound I-572] | < 10 | < 10 | – | – |
| O=C(NC1(C(=O)O)C2CC3CC(C2)CC1C3)c1cnc(-c2cn(C3CCC(F)(F)CC3)c3cc(-n4ncc5c4CCN(CC(F)(F)F)C5)ccc23)nc1C(F)(F)F (stereo not shown) [Compound I-573] | < 10 | < 10 | – | – |

| Structure (SMILES) | EC50 (RSV A2 strain; [2]) [nM] | EC50 [1, 3] [nM] | EC50 (RSV A2 strain; [4]) [nM] | EC50 [1, 5] [nM] |
| --- | --- | --- | --- | --- |
| CCC(CC)n1cc(-c2ccc(C(=O)NC3(C(=O)O)C4CC5CC(C4)CC3C5)c(C(F)(F)F)n2)c2ccc(O[C@H]3CC[C@H](N4CC(F)(F)C4)CC3)cc21 (stereo partly shown) [Compound I-575] | < 10 | < 10 | – | – |
| COC[C@@H](C)n1cc(-c2ncc(C(=O)NC3(C(=O)O)C4CC5CC(C4)CC3C5)c(C(F)(F)F)n2)c2ccc(OC3CCN(CC(C)(F)F)CC3)cc21 (stereo partly shown) [Compound I-576] | < 10 | < 10 | – | – |
| COC[C@H](C)n1cc(-c2ccc(C(=O)NC3(C(=O)O)C4CC5CC(C4)CC3C5)c(C(F)(F)F)n2)c2ccc(O[C@H]3CC[C@H](N4CC(F)(F)C4)CC3)cc21 (stereo partly shown) [Compound I-577] | < 10 | < 10 | – | – |
| CC(F)(F)CN1CCC(Oc2ccc3c(-c4ncc(C(=O)NC5(C(=O)O)C6CC7CC(C6)CC5C7)c(C(F)(F)F)n4)cn(C4CCOCC4)c3c2)CC1 (stereo not shown) [Compound I-578] | < 10 | < 10 | – | – |
| CC(F)(F)c1nc(-c2cn(C3CCC4(CC3)COC4)c3cc(O[C@H]4CC[C@H](N5CC(F)(F)C5)CC4)ccc23)ncc1C(=O)NC1(C(=O)O)C2CC3CC(C2)CC1C3 (stereo partly shown) [Compound I-580] | < 10 | < 10 | – | – |
| COC[C@@H](C)n1cc(-c2ccc(C(=O)NC3(C(=O)O)C4CC5CC(C4)CC3C5)c(C(F)(F)F)n2)c2ccc(O[C@H]3CC[C@H](N4CC(F)(F)C4)CC3)cc21 (stereo partly shown) [Compound I-581] | < 10 | < 10 | – | – |
| O=C(NC1(C(=O)O)C2CC3CC(C2)CC1C3)c1ccc(-c2cn(C3CCC4(CC3)COC4)c3cc(O[C@H]4CC[C@H](N5CC(F)(F)C5)CC4)ccc23)nc1C(F)(F)F (stereo partly shown) [Compound I-582] | < 10 | < 10 | – | – |
| CC(F)(F)CN1CCC(Oc2ccc3c(-c4ncc(C(=O)NC5(C(=O)O)C6CC7CC(C6)CC5C7)c(C(C)(F)F)n4)cn(C4CCC(F)(F)CC4)c3c2)CC1 (stereo not shown) [Compound I-583] | < 10 | < 10 | – | – |
| COC[C@@H](C)n1cc(-c2ncc(C(=O)NC3(C(=O)O)C4CC5CC(C4)CC3C5)c(C(F)(F)F)n2)c2ccc(O[C@H]3CC[C@@H](N4CC(F)(F)C4)CC3)cc21 (stereo partly shown) [Compound I-585] | < 10 | < 10 | – | – |
| CC(F)(F)c1nc(N2CC3(CCOCC3)c3cc(O[C@H]4CC[C@@H](N5CC(F)(F)C5)CC4)ccc32)ncc1C(=O)NC1(C(=O)O)C2CC3CC(C2)CC1C3 (stereo partly shown) [Compound I-586] | < 10 | < 10 | – | – |
| CCC1(CC)CN(c2ncc(C(=O)NC3(C(=O)O)C4CC5CC(C4)CC3C5)c(C(C)(F)F)n2)c2ccc(OC3CCN(c4ncc(F)cn4)CC3)cc21 (stereo not shown) [Compound I-588] | < 10 | < 10 | – | – |
| CCC1(CC)CN(c2ncc(C(=O)NC3(C(=O)O)C4CC5CC(C4)CC3C5)c(C(C)(F)F)n2)c2ccc(OC3CCN(CC(F)(F)F)CC3)cc21 (stereo not shown) [Compound I-589] | < 10 | < 10 | – | – |
| CCC1(CC)CN(c2ncc(C(=O)NC3(C(=O)O)C4CC5CC(C4)CC3C5)c(C(C)(F)F)n2)c2ccc(O[C@H]3CC[C@H](N4CC(F)(F)C4)CC3)cc21 (stereo partly shown) [Compound I-591] | – | – | 0.61 | 2.2 |
| CC(F)(F)c1nc(N2CC3(CCOCC3)c3cc(OC4CN(CC(F)(F)F)C4)ccc32)ncc1C(=O)NC1(C(=O)O)C2CC3CC(C2)CC1C3 (stereo not shown) [Compound I-592] | < 10 | < 10 | – | – |
| CC(F)(F)c1nc(N2CC3(CCOCC3)c3cc(OC4CCN(C5CS(=O)(=O)C5)CC4)ccc32)ncc1C(=O)NC1(C(=O)O)C2CC3CC(C2)CC1C3 (stereo not shown) [Compound I-593] | < 10 | < 10 | – | – |
| CC(F)(F)c1nc(N2CC3(CCOCC3)c3cc(O[C@H]4CC[C@H](N5CC(F)(F)C5)CC4)ncc32)ncc1C(=O)NC1(C(=O)O)C2CC3CC(C2)CC1C3 (stereo partly shown) [Compound I-594] | – | – | 0.38 | 4.2 |
| O=C(NC1(C(=O)O)C2CC3CC(C2)CC1C3)c1cnc(N2CC3(CCCCC3)c3cc(O[C@H]4CC[C@H](N5CC(F)(F)C5)CC4)ncc32)nc1C(F)(F)F (stereo partly shown) [Compound I-595] | < 10 | < 10 | – | – |
| CC(F)(F)c1nc(N2CC3(CCOCC3)c3cc(-n4ncc5c4CCN(CC(F)(F)F)C5)ccc32)ncc1C(=O)NC1(C(=O)O)C2CC3CC(C2)CC1C3 (stereo not shown) [Compound I-596] | < 10 | < 10 | – | – |
| CC(F)(F)c1nc(N2CC3(CC3)c3cc(O[C@H]4CC[C@H](N5CC(F)(F)C5)CC4)ccc32)ncc1C(=O)NC1(C(=O)O)C2CC3CC(C2)CC1C3 (stereo partly shown) [Compound I-597] | < 10 | < 10 | – | – |
| CC(F)(F)c1nc(N2CC3(CCCC3)c3cc(O[C@@H]4CCN(CC(F)(F)F)C4)ccc32)ncc1C(=O)NC1(C(=O)O)C2CC3CC(C2)CC1C3 (stereo partly shown) [Compound I-598] | < 10 | < 10 | – | – |
